Source: US20150219673A1, “THE USE OF GENE EXPRESSION PROFILING AS A BIOMARKER FOR ASSESSING THE EFFICACY OF HDAC INHIBITOR TREATMENT IN NEURODEGENERATIVE CONDITIONS” (Massachusetts Institute of Technology, priority 2012, published 2015)

What was measured:
[1] = system: hippocampus of 5XFAD mice; assay: RNA sequencing of hippocampus of 5XFAD mice after chronic CI-994 treatment; type: in vivo, mouse; settings: 5XFAD mice hippocampus
Source text: To test if high-throughput genome-wide RNA sequencing can be readily used a biomarker for HDAC inhibitor-mediated treatment of cognitive decline associate with AD, a mouse model of familial AD, the SXFAD mice were used. These mice harbor point mutations in the AD-related pathogenic presenilin and amyloid precursor protein pathways, and recapitulate the majority of human AD pathologies, including amyloid-β deposition, neurodegeneration, and cognitive impairments. […] After completion of treatment, mice were sacrificed, their brain regions dissected, and total RNA extracted of the hippocampus, a brain region important for memory formation and storage. The RNA was quality controlled using Agilent's bioanalyzer 5' and 3'-end labeled and sequenced on an Illumina HiSeq sequencer with 200 million reads per sample. Sequence reads were aligned to the mouse genome, and quality-filtered. Differential analysis was then conducted using Cuffdiff with IIlumina iGenome mm9 UCSC gene annotation.

[2] = system: peripheral blood mononuclear cells of 5XFAD mice; assay: RNA sequencing of peripheral blood mononuclear cells of 5XFAD mice after CI-994 treatment; type: in vivo, mouse; settings: PBMC, CI-994 1 mg/kg i.p. every other day 1 month, FIG. 2
Experimental: After completion of treatment, blood was drawn and peripheral blood mononuclear cells were rapidly isolated. The cells were washed with PBS and total RNA was extracted using the RNeasy kit (Qiagen). RNA integrity was analyzed using the Bioanalyzer 2100 (Agilent) and the libraries were prepared using the Ovation Ultralow Library System kit (NuGen). Libraries were then pooled in equal amounts and high-throughput sequencing was performed on an Illumina HiSeq 2000 platform. Two individual biological replicates per condition were sequenced.

cognitive function = settings: cited from earlier work; for cognitive function in vivo: see US 2011/0224303
[3] = CI-994 1 mg/kg i.p. daily 1 month

Structure (SMILES): CC(=O)Nc1ccc(C(=O)Nc2ccccc2N)cc1 [CI-994, 4-(acetylamino)-N-(2-aminophenyl)benzamide]
- 1700026L06Rik expression level [1, 3]: 0.5624
- 4833427G06Rik expression level [1, 3]: 1.156
- Abhd2 expression level [1, 3]: 16.6349
- Acaa2 expression level [1, 3]: 15.6611
- Acacb expression level [1, 3]: 0.6669
- Acss3 expression level [1, 3]: 0.8644
- Adcy1 expression level [1, 3]: 121.693
- Aebp1 expression level [1, 3]: 4.334
- Aldh1a1 expression level [1, 3]: 16.8375
- Aldh2 expression level [1, 3]: 35.3667
- Als2cr4 expression level [1, 3]: 14.5748
- Angptl2 expression level [1, 3]: 1.519
- Antxr1 expression level [1, 3]: 4.106
- Apln expression level [1, 3]: 9.121
- Arc expression level [1, 3]: 77.622
- Arhgap28 expression level [1, 3]: 0.18
- Arsg expression level [1, 3]: 13.3427
- Atf4 expression level [1, 3]: 63.7327
- Atp2b3 expression level [1, 3]: 41.3436
- Atp7a expression level [1, 3]: 1.987
- Atp11c expression level [1, 3]: 3.649
- B230217C12Rik expression level [1, 3]: 41.8821
- BC049635 expression level [1, 3]: 0.514
- Baiap2l1 expression level [1, 3]: 0.6224
- Bmp6 expression level [1, 3]: 5.713
- Bmp7 expression level [1, 3]: 2.931
- Brwd3 expression level [1, 3]: 1.786
- Bst2 expression level [1, 3]: 4.307
- Btbd3 expression level [1, 3]: 34.9585
- C1ql2 expression level [1, 3]: 39.6924
- C1qtnf5 expression level [1, 3]: 15.0312
- C230081A13Rik expression level [1, 3]: 8.241
- C530008M17Rik expression level [1, 3]: 17.1167
- Cabp7 expression level [1, 3]: 205.981
- Car14 expression level [1, 3]: 6.584
- Ccdc141 expression level [1, 3]: 2.317
- Ccnd1 expression level [1, 3]: 15.4148
- Cdh3 expression level [1, 3]: 0.3686
- Cdr2 expression level [1, 3]: 5.994
- Cndp1 expression level [1, 3]: 0.2514
- Cnst expression level [1, 3]: 10.5531
- Col4a3 expression level [1, 3]: 0.1459
- Col4a4 expression level [1, 3]: 0.1702
- Col17a1 expression level [1, 3]: 0.02351
- Coro2b expression level [1, 3]: 59.6533
- Cpn1 expression level [1, 3]: 0.2381
- Cpne7 expression level [1, 3]: 72.8282
- Cpt1b expression level [1, 3]: 0
- Crtac1 expression level [1, 3]: 33.2962
- Crtap expression level [1, 3]: 2.382
- Ctnnal1 expression level [1, 3]: 4.538
- Cul4b expression level [1, 3]: 14.4206
- Cxcl14 expression level [1, 3]: 62.1186
- Dab2 expression level [1, 3]: 2.765
- Dclk3 expression level [1, 3]: 6.883
- Dcn expression level [1, 3]: 18.2706
- Dgkh expression level [1, 3]: 8.277
- Dio2 expression level [1, 3]: 13.4167
- Dmrt3 expression level [1, 3]: 0.6692
- Dnahc11 expression level [1, 3]: 0.2181
- Doc2b expression level [1, 3]: 33.8561
- Dpep1 expression level [1, 3]: 0.1399
- Dsg2 expression level [1, 3]: 0.9993
- Dsp expression level [1, 3]: 8.258
- Ephx1 expression level [1, 3]: 17.8668
- Eps8l2 expression level [1, 3]: 1.379
- F11r expression level [1, 3]: 3.438
- Fads2 expression level [1, 3]: 8.701
- Fam38a expression level [1, 3]: 0.6613
- Fam163b expression level [1, 3]: 67.8893
- Fras1 expression level [1, 3]: 0.749
- Fst expression level [1, 3]: 1.755
- Fxyd1 expression level [1, 3]: 37.5709
- Fzd4 expression level [1, 3]: 3.613
- Gabra2 expression level [1, 3]: 45.2624
- Galm expression level [1, 3]: 1.687
- Gas6 expression level [1, 3]: 39.2248
- Glb1l2 expression level [1, 3]: 0.5483
- Glul expression level [1, 3]: 251.125
- Gm221 expression level [1, 3]: 0.499
- Gm853 expression level [1, 3]: 0
- Gm11744 expression level [1, 3]: 2.594
- Gng7 expression level [1, 3]: 64.066
- Gprc5c expression level [1, 3]: 1.254
- Grm2 expression level [1, 3]: 13.2878
- Gyltl1b expression level [1, 3]: 0.192
- Hapln1 expression level [1, 3]: 10.6547
- Hbb-b2 expression level [1, 3]: 3.714
- Hemk1 expression level [1, 3]: 4.074
- Homer2 expression level [1, 3]: 14.9404
- Hsd11b1 expression level [1, 3]: 28.1849
- Hspg2 expression level [1, 3]: 0.7372
- Ifi27l1 expression level [1, 3]: 36.0763
- Igfbp5 expression level [1, 3]: 38.2003
- Igfbp7 expression level [1, 3]: 18.1462
- Igfn1 expression level [1, 3]: 0.1271
- Iqgap1 expression level [1, 3]: 3.038
- Isoc1 expression level [1, 3]: 14.1426
- Kcnj2 expression level [1, 3]: 3.205
- Kcnj10 expression level [1, 3]: 64.1636
- Kif9 expression level [1, 3]: 1.8759
- Kit expression level [1, 3]: 18.7665
- Klhdc7a expression level [1, 3]: 4.613
- Lama5 expression level [1, 3]: 0.8869
- Lamp2 expression level [1, 3]: 40.9038
- Leprel4 expression level [1, 3]: 7.907
- Lingo1 expression level [1, 3]: 88.754
- Llgl2 expression level [1, 3]: 0.4373
- Lmx1a expression level [1, 3]: 0.5034
- Loxl1 expression level [1, 3]: 1.486
- Loxl2 expression level [1, 3]: 0.1912
- Lrp5 expression level [1, 3]: 2.432
- Lrp10 expression level [1, 3]: 14.6733
- Ltc4s expression level [1, 3]: 7.102
- Lypd1 expression level [1, 3]: 47.9728
- Mccc1 expression level [1, 3]: 5.41
- Mfsd7c expression level [1, 3]: 0.65
- Mmp15 expression level [1, 3]: 6.699
- Mpp7 expression level [1, 3]: 1.162
- Myoc expression level [1, 3]: 11.9051
- Myof expression level [1, 3]: 0.8629
- Ndst4 expression level [1, 3]: 5.129
- Nek11 expression level [1, 3]: 0.5801
- Nid2 expression level [1, 3]: 1.141
- Nos1 expression level [1, 3]: 8.7895
- Npas4 expression level [1, 3]: 3.8842
- Npr1 expression level [1, 3]: 1.7036
- Nqo1 expression level [1, 3]: 3.794
- Nt5dc1 expression level [1, 3]: 1.205
- Oca2 expression level [1, 3]: 0.467
- Odz4 expression level [1, 3]: 7.194
- Ooep expression level [1, 3]: 0.07202
- Pcp4l1 expression level [1, 3]: 50.8954
- Pgcp expression level [1, 3]: 8.02
- Phactr2 expression level [1, 3]: 6.295
- Pla2g4e expression level [1, 3]: 1.85
- Plek2 expression level [1, 3]: 0.4301
- Plekha2 expression level [1, 3]: 12.177
- Pltp expression level [1, 3]: 36.9312
- Plxnb2 expression level [1, 3]: 10.316
- Polr1a expression level [1, 3]: 5.4566
- Pon1 expression level [1, 3]: 0.12
- Ppfibp2 expression level [1, 3]: 2.53
- Ppp1r1a expression level [1, 3]: 67.7123
- Ppp1r1b expression level [1, 3]: 37.5707
- Prelp expression level [1, 3]: 9.53
- Prox1 expression level [1, 3]: 14.3616
- Prps2 expression level [1, 3]: 12.0363
- Ptpn14 expression level [1, 3]: 1.315
- Rab20 expression level [1, 3]: 1.273
- Rai14 expression level [1, 3]: 1.053
- Rbp3 expression level [1, 3]: 0.5204
- Rd3 expression level [1, 3]: 0.6656
- Ripk4 expression level [1, 3]: 0.1565
- Rrh expression level [1, 3]: 0.05235
- Rsph4a expression level [1, 3]: 2.9407
- Scg5 expression level [1, 3]: 219.826
- Scn4b expression level [1, 3]: 8.643
- Scube1 expression level [1, 3]: 4.586
- Scube3 expression level [1, 3]: 0.6281
- Sdk1 expression level [1, 3]: 0.6821
- Serpinb1b expression level [1, 3]: 0.9169
- Sfrp5 expression level [1, 3]: 0.5384
- Slc4a10 expression level [1, 3]: 46.0086
- Slc5a3 expression level [1, 3]: 5.289
- Slc12a2 expression level [1, 3]: 20.5749
- Slc12a4 expression level [1, 3]: 5.898
- Slc12a7 expression level [1, 3]: 1.124
- Slc16a2 expression level [1, 3]: 14.2113
- Slc16a4 expression level [1, 3]: 2.157
- Slc16a9 expression level [1, 3]: 1.385
- Slc16a12 expression level [1, 3]: 1.226
- Slc22a6 expression level [1, 3]: 0.7873
- Slc23a2 expression level [1, 3]: 27.4105
- Slc25a39 expression level [1, 3]: 30.7081
- Slc29a4 expression level [1, 3]: 11.9409
- Slc37a2 expression level [1, 3]: 0.8387
- Slc39a4 expression level [1, 3]: 1.073
- Slco1c1 expression level [1, 3]: 20.1851
- Smpdl3a expression level [1, 3]: 19.7502
- Sod3 expression level [1, 3]: 6.1
- Spag16 expression level [1, 3]: 0.4608
- Spint2 expression level [1, 3]: 15.9511
- Sptlc3 expression level [1, 3]: 0.2346
- Ssfa2 expression level [1, 3]: 10.0587
- Stk39 expression level [1, 3]: 28.2125
- Stra6 expression level [1, 3]: 4.817
- Tbc1d1 expression level [1, 3]: 4.993
- Tbc1d2 expression level [1, 3]: 0.8273
- Tbc1d9 expression level [1, 3]: 19.741
- Tbcel expression level [1, 3]: 17.0147
- Tcn2 expression level [1, 3]: 9.139
- Tead1 expression level [1, 3]: 4.075
- Tgfbi expression level [1, 3]: 1.202
- Tgfbr3 expression level [1, 3]: 3.88
- Timp2 expression level [1, 3]: 84.9023
- Tinagl1 expression level [1, 3]: 2.32
- Tjp3 expression level [1, 3]: 0.9513
- Tlr2 expression level [1, 3]: 1.035
- Tmem27 expression level [1, 3]: 0.3657
- Tmem98 expression level [1, 3]: 10.1715
- Tmem108 expression level [1, 3]: 8.4143
- Tns1 expression level [1, 3]: 3.868
- Tspan33 expression level [1, 3]: 15.0442
- Ttc21a expression level [1, 3]: 1.107
- Vamp8 expression level [1, 3]: 13.404
- Vcam1 expression level [1, 3]: 10.2949
- Vcp expression level [1, 3]: 1.545
- Wdfy1 expression level [1, 3]: 7.05
- Wdr16 expression level [1, 3]: 1.6294
- Wfs1 expression level [1, 3]: 43.1125
- Zfp185 expression level [1, 3]: 1.3415
- Zfp605 expression level [1, 3]: 4.398
- rescue of the downregulated genes [1, 3]: 100%
- rescue of the differentially expressed genes to levels comparable to control mice ([1]; CI-994 1 mg/kg i.p. daily 1 month, FIG. 1): rescued to near completion
- number of genes rescued by CI-994 treatment ([1]; FIG. 1 heatmap, significance level p<0.05): 239 genes
- number of differentially expressed genes (wild type vs 5XFAD) rescued to control levels [2]: 69 genes
- AD-related cognitive impairments (cognitive function; earlier finding stated for CI-994): reduce AD-related cognitive impairments
- cognitive function in vivo (cognitive function): improve cognitive function in vivo

Structure (SMILES): Nc1ccc(C(=O)Nc2ccccc2N)cc1 [dinaline]
- cognitive function in vivo (cognitive function): improve cognitive function in vivo
